For assay [1], the system named is colon cancer cells. The experiment in a line: Protein expression level changes after treatment with FAK inhibitors (in-solution digestion, protein identification, expression ratios, FIG. 14). The format is cell-based, human. More on the design: dose or concentration left out as unconfirmed. The settings on record: 2 hours (FIG. 14). The procedure: A human colon cancer cell line, HCT-116, was cultured using an RPMI-1640 medium containing 10% (v/v) heat-inactivated FBS and 1% (v/v) penicillin/streptomycin in a 60 mm plastic culture plate (Corning Life Science, Acton, Mass., USA) until its cell density reached 2×10^6 cells/cm^2. The culture was performed in a humidified incubator of 5% CO2 at 37° C. The cells were starved for 24 hours and washed with serum-free medium. FGF signaling was amplified by adding 10 ng/mL of EGF, IGF, PMA, and PDGF, followed by further incubation for 2 hours. Thereafter, the cells were harvested and collected by centrifugation at a speed of 300 g for 5 minutes. Cell membranes were disrupted using a sonicator, and centrifuged at a speed of 13,000 g for 30 minutes to collect lysed intracellular proteins. Further, to compare the amounts of expressed FAK-binding proteins by using defactinib (VS-6063) and PF-573228, which are FAK inhibitors, independently or simultaneously, normal intestinal epidermal cells and colon cancer cells were each treated with FAK inhibitors at three different final concentrations […], 1 mM, and 10 mM (2 hours), and then cells were collected and subjected to in-solution digestion to isolate and identify the proteins.

Assay [2] concerns colon cancer cell line HCT-116. The experiment in a line: Western blotting / immunoprecipitation of FAK and FAK-bound protein complexes after treatment with FAK signaling substances. The format is cell-based, human. The conditions noted are these: HCT-116, 10 ng/mL, 2 hours, compared with control group not treated with the signaling substances (FIG. 7). The procedure:
A human colon cancer cell line, HCT-116, was cultured using an RPMI-1640 medium containing 10% (v/v) heat-inactivated FBS and 1% (v/v) penicillin/streptomycin in a 60 mm plastic culture plate (Corning Life Science, Acton, Mass., USA) until its cell density reached 2×10^6 cells/cm^2. The culture was performed in a humidified incubator of 5% CO2 at 37° C. The cells were starved for 24 hours and washed with serum-free medium. FGF signaling was amplified by adding 10 ng/mL of EGF, IGF, PMA, and PDGF, followed by further incubation for 2 hours. Thereafter, the cells were harvested and collected by centrifugation at a speed of 300 g for 5 minutes. Cell membranes were disrupted using a sonicator, and centrifuged at a speed of 13,000 g for 30 minutes to collect lysed intracellular proteins. Further, to compare the amounts of expressed FAK-binding proteins by using defactinib (VS-6063) and PF-573228, which are FAK inhibitors, independently or simultaneously, normal intestinal epidermal cells and colon cancer cells were each treated with FAK inhibitors at three different final concentrations of 0.1 mM, 1 mM, and 10 mM (2 hours), and then cells were collected and subjected to in-solution digestion to isolate and identify the proteins.
The concentrations of the collected proteins were determined using a bicinchoninic acid (BCA) protein assay kit (Thermo Fisher Scientific, Waltham, Mass., USA), and the remaining samples were separated by 10% SDS-PAGE (sodium dodecyl sulfate-polyacrylamide gel electrophoresis), and transferred to a nitrocellulose membrane (Pall Corporation, Pensacola, Fla., USA) to perform Western blotting. The membrane was blocked with PBS containing 0.2% TWEEN 20 and 5% non-fat dry milk for about 2 hours, and blotting was performed using anti-phospho-FAK (1:1000) antibody and anti-β-actin (1:5000) antibody overnight. HRP-conjugated goat anti-rabbit IgG diluted 1:5000 was used as a secondary antibody, and fluorescence images were scanned using an Ez-capture MG (ATTO, NY, USA) instrument. For IP, 1.5 mg of the cell lysate was prepared and incubated overnight with 20 μL of agarose beads preblocked (at 4° C. for 2 hours) with PBS containing 1% bovine serum albumin (BSA), wherein 10 μL of FAK antibody (1:500) was immobilized to the agarose beads. To remove nonspecific binding, the beads were washed with 600 μL of PBS containing 0.1% TWEEN 20 twice, and FAK protein and proteins bound thereto were crosslinked using 2 mM of dithiobis(succinimidyl propionate) (DSP) and dithiobismaleimidoethane (DTME). The crosslinking agents were dissolved in 20 mM DMSO and diluted with PBS (pH 7.4), and then used in the reaction. Washing was performed five times using 600 μL of a 0.1% solution of PBS-Tween 20 and further performed using PBS twice. […]
Background: In western blotting, separated proteins are transferred to a membrane and probed.

`CS(=O)(=O)c1cccc(CNc2nc(Nc3ccc4c(c3)CCC(=O)N4)ncc2C(F)(F)F)c1` [PF-573228]: in assay [1], the ELAVL1 expression level entry was “statistically significant reduction”, the SYNE1 expression level entry is on record as “statistically significant reduction” and the ZYX expression level result is “statistically significant reduction”. The ARFGEF expression level result in assay [1] (reduction only with PF-573228) is listed as “significant reduction”.

Turning to `CCCCCCCCCCCCCC(=O)O[C@@H]1[C@@H](C)[C@@]2(O)[C@@H](C=C(CO)C[C@]3(O)C(=O)C(C)=C[C@@H]23)[C@@H]2C(C)(C)[C@]12OC(C)=O` [PMA, phorbol 12-myristate 13-acetate], the “complexes of the FAK protein and the proteins specifically bound thereto” value in assay [2] was “increased two-fold or more”.

Consider PDGF, for which the “complexes of the FAK protein and the proteins specifically bound thereto” value in assay [2] is recorded as “increased two-fold or more”.

As for “hEGF: human epidermal growth factor, FAK signaling substance”, the “complexes of the FAK protein and the proteins specifically bound thereto” value in assay [2] was “increased two-fold or more”.

As for “hIGF-1: human insulin-like growth factor-1, FAK signaling substance”, the “complexes of the FAK protein and the proteins specifically bound thereto” value in assay [2] is “increased two-fold or more”.

(Values after patent publication US11408886B2, “Method of screening for novel therapeutic targets to develop therapeutic agents for colon cancer and prognostic biomarkers for colon cancer treatment screened using the same” (KOREA INSTITUTE OF SCIENCE AND TECHNOLOGY, priority 2018, dated 2022).)
